Assay results as given in patent US20090304692A1, “TRIAZINE COMPOUNDS AS PI3 KINASE AND MTOR INHIBITORS” (Wyeth, priority 2008, published 2009).
Values joined by “and” are separate entries in the source; they are usually repeats but may differ in a detail not shown here. Equal entries are not always repeated. Where two headings read alike, the source gives them in different places.

Columns and labels:
[1] = biological target: PI3K-γ (Homo sapiens, UniProt P48736); test: PI3K-gamma fluorescence polarization assay; conditions: read-out: IC50 PI3Kγ
PI3K-γ, sequence (P48736 whole entry, species assumed): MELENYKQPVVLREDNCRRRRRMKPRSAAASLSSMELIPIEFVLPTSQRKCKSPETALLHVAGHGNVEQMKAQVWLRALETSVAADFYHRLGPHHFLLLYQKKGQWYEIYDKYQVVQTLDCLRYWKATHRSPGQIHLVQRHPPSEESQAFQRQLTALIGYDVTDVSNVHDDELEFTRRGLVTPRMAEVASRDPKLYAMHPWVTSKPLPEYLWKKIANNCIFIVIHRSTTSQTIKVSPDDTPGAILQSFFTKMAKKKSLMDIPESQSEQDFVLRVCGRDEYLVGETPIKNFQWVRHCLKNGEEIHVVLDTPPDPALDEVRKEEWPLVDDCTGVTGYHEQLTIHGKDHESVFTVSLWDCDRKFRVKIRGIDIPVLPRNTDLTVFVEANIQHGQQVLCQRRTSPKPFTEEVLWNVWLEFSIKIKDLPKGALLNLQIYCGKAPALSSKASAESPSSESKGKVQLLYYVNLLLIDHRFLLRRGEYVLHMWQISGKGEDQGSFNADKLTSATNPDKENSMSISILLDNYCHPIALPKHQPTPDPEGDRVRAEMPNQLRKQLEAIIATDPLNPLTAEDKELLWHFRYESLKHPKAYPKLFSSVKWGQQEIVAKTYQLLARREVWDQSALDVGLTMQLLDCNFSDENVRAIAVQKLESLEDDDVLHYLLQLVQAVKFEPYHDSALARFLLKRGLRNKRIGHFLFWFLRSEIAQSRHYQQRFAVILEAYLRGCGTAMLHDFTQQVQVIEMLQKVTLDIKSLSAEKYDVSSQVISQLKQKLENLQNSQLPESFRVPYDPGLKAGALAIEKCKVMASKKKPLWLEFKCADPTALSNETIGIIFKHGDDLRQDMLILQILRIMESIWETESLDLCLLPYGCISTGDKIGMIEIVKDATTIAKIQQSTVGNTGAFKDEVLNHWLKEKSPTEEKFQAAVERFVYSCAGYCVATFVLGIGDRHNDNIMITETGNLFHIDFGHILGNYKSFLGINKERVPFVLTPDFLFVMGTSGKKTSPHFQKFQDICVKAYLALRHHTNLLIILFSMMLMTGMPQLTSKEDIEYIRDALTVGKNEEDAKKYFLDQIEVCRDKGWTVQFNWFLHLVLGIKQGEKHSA

[2] = biological target: PI3K-α (Homo sapiens, UniProt P42336); test: PI3K-alpha fluorescence polarization assay; conditions: read-out: IC50 PI3Kα
PI3K-α, sequence (P42336 whole entry, species assumed): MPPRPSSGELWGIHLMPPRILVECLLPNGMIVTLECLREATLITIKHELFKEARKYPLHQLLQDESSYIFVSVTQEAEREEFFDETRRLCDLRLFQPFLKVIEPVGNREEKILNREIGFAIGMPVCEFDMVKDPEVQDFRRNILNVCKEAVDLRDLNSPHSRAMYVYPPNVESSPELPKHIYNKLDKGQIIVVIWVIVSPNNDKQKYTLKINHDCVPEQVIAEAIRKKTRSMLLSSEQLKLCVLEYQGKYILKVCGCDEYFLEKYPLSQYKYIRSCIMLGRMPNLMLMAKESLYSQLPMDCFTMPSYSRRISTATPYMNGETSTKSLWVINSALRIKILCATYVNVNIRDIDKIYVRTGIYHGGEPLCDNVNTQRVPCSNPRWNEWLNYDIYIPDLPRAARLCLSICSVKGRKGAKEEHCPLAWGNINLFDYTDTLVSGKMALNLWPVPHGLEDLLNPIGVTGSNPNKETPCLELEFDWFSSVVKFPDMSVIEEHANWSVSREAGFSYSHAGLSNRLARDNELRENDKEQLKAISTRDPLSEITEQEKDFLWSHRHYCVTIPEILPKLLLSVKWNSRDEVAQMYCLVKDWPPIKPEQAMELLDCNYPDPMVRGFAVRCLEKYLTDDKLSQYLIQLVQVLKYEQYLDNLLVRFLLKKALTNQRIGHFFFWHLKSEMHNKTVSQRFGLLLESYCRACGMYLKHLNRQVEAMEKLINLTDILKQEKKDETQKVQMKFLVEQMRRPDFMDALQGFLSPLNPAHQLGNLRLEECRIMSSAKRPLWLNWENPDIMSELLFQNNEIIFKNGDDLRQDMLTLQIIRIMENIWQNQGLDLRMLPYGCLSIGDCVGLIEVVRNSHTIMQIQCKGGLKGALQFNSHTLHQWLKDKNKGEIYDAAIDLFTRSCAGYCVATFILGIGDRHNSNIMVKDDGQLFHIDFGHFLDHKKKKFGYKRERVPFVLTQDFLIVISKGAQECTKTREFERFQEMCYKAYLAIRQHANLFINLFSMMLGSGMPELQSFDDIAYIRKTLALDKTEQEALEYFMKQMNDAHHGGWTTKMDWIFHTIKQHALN
PI3K-α, sequence (P27986 whole entry partner, species assumed): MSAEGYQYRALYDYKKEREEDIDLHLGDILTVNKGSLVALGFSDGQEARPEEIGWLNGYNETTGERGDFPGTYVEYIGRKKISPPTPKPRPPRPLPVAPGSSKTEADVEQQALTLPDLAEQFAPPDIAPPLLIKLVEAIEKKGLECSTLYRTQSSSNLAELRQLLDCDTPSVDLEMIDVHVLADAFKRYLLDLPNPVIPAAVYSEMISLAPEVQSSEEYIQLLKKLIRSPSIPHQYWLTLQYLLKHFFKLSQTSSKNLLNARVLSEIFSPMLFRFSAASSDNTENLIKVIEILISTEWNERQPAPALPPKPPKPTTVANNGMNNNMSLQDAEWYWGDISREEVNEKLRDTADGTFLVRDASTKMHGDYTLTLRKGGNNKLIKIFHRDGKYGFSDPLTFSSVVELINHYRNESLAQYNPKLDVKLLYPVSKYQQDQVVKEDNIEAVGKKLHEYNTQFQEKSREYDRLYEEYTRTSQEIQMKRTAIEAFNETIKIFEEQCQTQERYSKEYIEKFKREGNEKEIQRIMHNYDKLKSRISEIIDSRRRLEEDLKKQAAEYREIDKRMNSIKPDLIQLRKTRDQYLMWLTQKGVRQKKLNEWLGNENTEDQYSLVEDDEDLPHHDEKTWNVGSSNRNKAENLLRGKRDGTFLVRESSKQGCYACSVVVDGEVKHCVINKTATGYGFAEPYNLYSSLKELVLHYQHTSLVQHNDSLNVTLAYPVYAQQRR

[3] = test system: human prostate PC3-mm2 tumor cell line; test: In vitro cell culture growth assay (MTS), PC3-mm2; assay type: cell-based
[4] = biological target: Human mTOR (FLAG-TOR) (Homo sapiens, UniProt P42345); test: mTOR kinase assay (DELFIA format, purified enzyme); assay type: biochemical; conditions: read-out: IC50 mTOR
Human mTOR (FLAG-TOR), sequence (P42345 1360-2549 limits assumed): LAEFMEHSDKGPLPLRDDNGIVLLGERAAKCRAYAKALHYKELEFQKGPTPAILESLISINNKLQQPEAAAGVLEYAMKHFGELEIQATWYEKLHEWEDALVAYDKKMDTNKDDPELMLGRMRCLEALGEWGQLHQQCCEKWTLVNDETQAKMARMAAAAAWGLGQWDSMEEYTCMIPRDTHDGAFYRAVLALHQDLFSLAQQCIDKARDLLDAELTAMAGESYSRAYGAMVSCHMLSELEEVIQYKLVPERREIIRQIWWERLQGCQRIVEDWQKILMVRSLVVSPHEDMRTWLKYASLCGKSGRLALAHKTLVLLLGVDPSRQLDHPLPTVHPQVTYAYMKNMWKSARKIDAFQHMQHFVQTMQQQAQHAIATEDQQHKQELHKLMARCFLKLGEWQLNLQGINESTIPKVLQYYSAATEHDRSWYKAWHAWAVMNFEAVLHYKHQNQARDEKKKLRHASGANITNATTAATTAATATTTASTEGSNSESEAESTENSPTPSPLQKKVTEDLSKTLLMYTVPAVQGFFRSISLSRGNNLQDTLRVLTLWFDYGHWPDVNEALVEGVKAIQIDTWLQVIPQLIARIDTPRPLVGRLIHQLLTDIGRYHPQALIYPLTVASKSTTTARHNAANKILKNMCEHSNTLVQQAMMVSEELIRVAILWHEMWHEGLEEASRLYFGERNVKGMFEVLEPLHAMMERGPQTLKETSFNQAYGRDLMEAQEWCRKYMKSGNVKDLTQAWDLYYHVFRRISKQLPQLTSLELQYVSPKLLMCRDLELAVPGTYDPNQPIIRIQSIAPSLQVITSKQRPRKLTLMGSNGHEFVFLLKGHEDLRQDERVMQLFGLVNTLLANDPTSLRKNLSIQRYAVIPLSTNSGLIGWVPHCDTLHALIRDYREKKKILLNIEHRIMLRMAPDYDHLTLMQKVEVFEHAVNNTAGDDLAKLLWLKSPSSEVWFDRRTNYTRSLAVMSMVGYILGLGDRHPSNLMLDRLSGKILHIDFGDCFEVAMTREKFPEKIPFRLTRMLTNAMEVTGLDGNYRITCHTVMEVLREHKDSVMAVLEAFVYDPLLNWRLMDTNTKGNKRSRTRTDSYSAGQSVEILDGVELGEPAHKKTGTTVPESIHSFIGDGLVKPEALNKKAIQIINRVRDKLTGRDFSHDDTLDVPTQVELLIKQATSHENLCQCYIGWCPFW

[5] = Homo sapiens, PC3MM2, 72 h, MTS cell growth assay, three days after drug treatment, read-out: IC50 PC3-mm2
[6] = Homo sapiens, PC3MM2, 72 h, MTS cell growth assay, three days after drug treatment, PC3-mm2 cells, read-out: IC50 PC3-mm2

IC50 ([3]; MTS cell growth assay, three days after drug treatment, PC3-mm2 cells, read-out: IC50 PC3-mm2) [nM] | IC50 ([3]; Homo sapiens, PC3MM2, 72 h, read-out: IC50 PC3-mm2, MTS cell growth assay, three days after drug treatment) [nM] | IC50 [3, 5] [nM] | IC50 ([2]; listed as 486) [nM] | IC50 [3, 6] [nM] | Compound | IC50 [1] [nM] | IC50 [2] [nM] | IC50 [4] | IC50 ([2]; listed as 828) [nM]
7 |  |  |  |  | 1-(4-{[(3S)-3-(dimethylamino)pyrrolidin-1-yl]carbonyl}phenyl)-3-{4-[4-morpholin- [Example 517] | 18.5 | 3.4 | 1.06 nM | 
 | 24 |  |  |  | CNC(=O)c1ccc(NC(=O)Nc2ccc(-c3nc(N4CCOCC4)nc(N4CCOCC4)n3)cc2)cc1 [Example 70, 4-(3-(4-(4,6-dimorpholino-1,3,5-triazin-2-yl)phenyl)ureido)-N-methylbenzamide] |  |  | 0.7 nM | 
 |  | 320 |  |  | O=C(Nc1ccncc1)Nc1ccc(-c2nc(N3CCCCC3)nc(N3CC4CCC(C3)O4)n2)cc1 [Example 79, 1-(4-(4-(8-oxa-3-azabicyclo[3.2.1]octan-3-yl)-6-(piperidin-1-yl)-1,3,5-triazin-2-yl)phenyl)-3-(pyridin-4-yl)urea] | 193 | 773 | 5.1 nM | 
 |  | 320 |  |  | O=C(Nc1ccncc1)Nc1ccc(-c2nc(N3CCCC3)nc(N3CC4CCC(C3)O4)n2)cc1 [Example 80, 1-(4-(4-(8-oxa-3-azabicyclo[3.2.1]octan-3-yl)-6-(pyrrolidin-1-yl)-1,3,5-triazin-2-yl)phenyl)-3-(pyridin-4-yl)urea] | 2120 | 851 | 7.15 nM | 
 |  | 14 |  |  | O=C(Nc1ccc(C(=O)NCCN2CCCCC2)cc1)Nc1ccc(-c2nc(N3CCOCC3)nc(N3CCOCC3)n2)cc1 [Example 151, 4-({[4-(4,6-dimorpholin-4-yl-1,3,5-triazin-2-yl)phenyl]carbamoyl}amino)-N-(2-piperidin-1-ylethyl)benzamide] | 8120 | 0.6 | 7 nM | 
 |  | 10 |  |  | CN(C)C1CCN(C(=O)c2ccc(NC(=O)Nc3ccc(-c4nc(N5CCOCC5)nc(N5CCOCC5)n4)cc3)cc2)C1 (centres unmarked) [Example 167, 1-(4-{[3-(dimethylamino)pyrrolidin-1-yl]carbonyl}phenyl)-3-[4-(4,6-dimorpholin-4-yl-1,3,5-triazin-2-yl)phenyl]urea] |  | 0.8 | 0.68 nM | 
 |  | 43 |  |  | CCCCc1nc(-c2ccc(NC(=O)Nc3ccc(C(=O)N(C)CCN(C)C)cc3)cc2)nc(N2CCOCC2)n1 [Example 198, 4-({[4-(4-butyl-6-morpholin-4-yl-1,3,5-triazin-2-yl)phenyl]carbamoyl}amino)-N-[2-(dimethylamino)ethyl]-N-methylbenzamide] | 33 | 2 | 2 nM | 
 |  | 65 |  |  | CCc1nc(-c2ccc(NC(=O)Nc3ccc(C(=O)Nc4ccc(N5CCN(C)CC5)cc4)cc3)cc2)nc(N2CCOCC2)n1 [Example 251, 4-({[4-(4-ethyl-6-morpholin-4-yl-1,3,5-triazin-2-yl)phenyl]carbamoyl}amino)-N-[4-(4-methylpiperazin-1-yl)phenyl]benzamide] | 21 | 2 | 6 nM | 
 |  | 39.3 | 1.1 | 39.3 | CC(C)c1nc(-c2ccc(NC(=O)Nc3ccc(C(=O)N4CCN(C)CC4)cc3)cc2)nc(N2CCOCC2)n1 [Example 304, 1-{4-[4-(1-methylethyl)-6-morpholin-4-yl-1,3,5-triazin-2-yl]phenyl}-3-{4-[(4-methylpiperazin-1-yl)carbonyl]phenyl}urea] |  | 2 | 2.5 nM and 4.5 nM | 
 |  |  |  | 107 | CN(C)C1CCN(C(=O)c2ccc(NC(=O)Nc3ccc(-c4nc(-c5cccs5)nc(N5CCOCC5)n4)cc3)cc2)CC1 [Example 568, 1-(4-{[4-(dimethylamino)piperidin-1-yl]carbonyl}phenyl)-3-{4-[4-morpholin-4-yl-6-(2-thienyl)-1,3,5-triazin-2-yl]phenyl}urea] |  | 3.5 | 10 nM | 
 |  |  |  |  | O=C(Nc1ccc(-c2nc(N3CCOCC3)nc(N3CC4CCC3CO4)n2)cc1)Nc1cc[nH]n1 (centres unmarked) [Example 809, 1-{4-[4-morpholin-4-yl-6-(2-oxa-5-azabicyclo[2.2.2]oct-5-yl)-1,3,5-triazin-2-yl]phenyl}-3-(1H-pyrazol-3-yl)urea] | 2190 | 395 | 67 nM | 
 |  |  |  |  | O=C(Nc1ccncc1)Nc1ccc(-c2nc(N3CCOCC3)nc(N3C4COCC3[C@H](O)C4)n2)cc1 (stereo partly drawn) [Example 820, 1-(4-{4-[(6R)-6-hydroxy-3-oxa-8-azabicyclo[3.2.1]oct-8-yl]-6-morpholin-4-yl-1,3,5-triazin-2-yl}phenyl)-3-pyridin-4-ylurea] | 67 | 6.1 | 0.515 nM | 
 |  |  |  |  | O=C(Nc1ccncc1)Nc1ccc(-c2nc(N3CCOCC3)nc(N3C4COCC3[C@H](OCc3ccccc3)C4)n2)cc1 (stereo partly drawn) [Example 821, 1-(4-{4-[(6R)-6-(benzyloxy)-3-oxa-8-azabicyclo[3.2.1]oct-8-yl]-6-morpholin-4-yl-1,3,5-triazin-2-yl}phenyl)-3-pyridin-4-ylurea] | 58.3 | 9.3 | 3.4 nM | 
 |  |  |  |  | O=C(Nc1ccc(C(=O)N2CCS(=O)(=O)CC2)cc1)Nc1ccc(-c2nc(N3CCOCC3)nc(N3C4CCC3COC4)n2)cc1 [Example 822, 1-{4-[(1,1-dioxidothiomorpholin-4-yl)carbonyl]phenyl}-3-{4-[4-morpholin-4-yl-6-(3-oxa-8-azabicyclo[3.2.1]oct-8-yl)-1,3,5-triazin-2-yl]phenyl}urea] | 31.5 | 3 | 0.335 nM | 
 |  |  |  |  | CN(C)[C@@H]1CCN(C(=O)c2ccc(NC(=O)Nc3ccc(-c4nc(N5CCOCC5)nc(N5C6CCC5COC6)n4)cc3)cc2)C1 [Example 825, 1-(4-{[(3R)-3-(dimethylamino)pyrrolidin-1-yl]carbonyl}phenyl)-3-{4-[4-morpholin-4-yl-6-(3-oxa-8-azabicyclo[3.2.1]oct-8-yl)-1,3,5-triazin-2-yl]phenyl}urea] | 13 | 2 | 185 nM | 2.05
 |  |  |  |  | C[C@H]1COCCN1c1nc(-c2ccc(NC(=O)Nc3ccncc3)cc2)nc(N2C3CCC2COC3)n1 [Example 829, 1-(4-{4-[(3S)-3-methylmorpholin-4-yl]-6-(3-oxa-8-azabicyclo[3.2.1]oct-8-yl)-1,3,5-triazin-2-yl}phenyl)-3-pyridin-4-ylurea] | 188 | 10.5 | 520 nM | 
 |  |  |  |  | C[C@H]1COCCN1c1nc(-c2ccc(NC(=O)Nc3ccc(C(=O)N(C)CCN(C)C)cc3)cc2)nc(N2C3CCC2COC3)n1 [Example 831, N-[2-(dimethylamino)ethyl]-N-methyl-4-{[(4-{4-[(3S)-3-methylmorpholin-4-yl]-6-(3-oxa-8-azabicyclo[3.2.1]oct-8-yl)-1,3,5-triazin-2-yl}phenyl)carbamoyl]amino}benzamide] | 87.5 | 3.3 | 265 nM | 
 |  |  |  |  | C[C@H]1COCCN1c1nc(-c2ccc(NC(=O)Nc3ccc(C(=O)O)cc3)cc2)nc(N2C3CCC2COC3)n1 [Example 832, 4-{[(4-{4-[(3S)-3-methylmorpholin-4-yl]-6-(3-oxa-8-azabicyclo[3.2.1]oct-8-yl)-1,3,5-triazin-2-yl}phenyl)carbamoyl]amino}benzoic acid] | 342 | 61.5 | 165 nM | 
 |  |  |  |  | C[C@H]1COCCN1c1nc(-c2ccc(NC(=O)Nc3ccc(C(=O)N4CC[C@@H](N(C)C)C4)cc3)cc2)nc(N2C3CCC2COC3)n1 [Example 833, 1-(4-{[(3R)-3-(dimethylamino)pyrrolidin-1-yl]carbonyl}phenyl)-3-(4-{4-[(3S)-3-methylmorpholin-4-yl]-6-(3-oxa-8-azabicyclo[3.2.1]oct-8-yl)-1,3,5-triazin-2-yl}phenyl)urea] | 81.5 | 5.6 | 185 nM | 
 |  |  |  |  | C[C@H]1COCCN1c1nc(-c2ccc(NC(=O)Nc3ccc(C(=O)N4CC[C@H](N(C)C)C4)cc3)cc2)nc(N2C3CCC2COC3)n1 [Example 834, 1-(4-{[(3S)-3-(dimethylamino)pyrrolidin-1-yl]carbonyl}phenyl)-3-(4-{4-[(3S)-3-methylmorpholin-4-yl]-6-(3-oxa-8-azabicyclo[3.2.1]oct-8-yl)-1,3,5-triazin-2-yl}phenyl)urea] | 86.5 | 4.8 | 680 nM | 
 |  |  |  |  | CCN1CCN(C(=O)c2ccc(NC(=O)Nc3ccc(-c4nc(N5C6CCC5COC6)nc(N5CCOC[C@@H]5C)n4)cc3)cc2)CC1 [Example 836, 1-{4-[(4-ethylpiperazin-1-yl)carbonyl]phenyl}-3-(4-{4-[(3S)-3-methylmorpholin-4-yl]-6-(3-oxa-8-azabicyclo[3.2.1]oct-8-yl)-1,3,5-triazin-2-yl}phenyl)urea] | 41 | 5.1 | 665 nM | 
 |  |  |  |  | CN1CCN(C(=O)c2ccc(NC(=O)Nc3ccc(-c4nc(N5CCOCC5)nc(N5C6CCC5COC6)n4)cc3)cc2)CC1(C)C [Example 837, 1-{4-[4-(morpholin-4-yl)-6-(3-oxa-8-azabicyclo[3.2.1]oct-8-yl)-1,3,5-triazin-2-yl]phenyl}-3-{4-[(3,3,4-trimethylpiperazin-1-yl)carbonyl]phenyl}urea] | 19.5 | 3.7 | 515 nM | 
 |  |  |  |  | N-[2-(dimethylamino)ethyl]-N-methyl-4-[({4-[4-morpholin-4-yl-6-(tetrahydro-2H-pyran-4-yl)-1,3,5-triazin-2-yl]phenyl}carbamoyl)amino]benzamide [Example 524] | 10 | 0.8 | 0.26 nM | 
